Source: patent publication US12215099B2, “Quinolinone and benzoxazine derivatives as muscarinic M1 and/or M4 receptor agonists” (Nxera Pharma UK Limited, priority 2018, dated 2025)

Legend:
Type in all cases: cell-based
[1] = target: T1, human muscarinic M4 receptor (Homo sapiens, UniProt P08173); assay: Alphascreen Surefire phospho-ERK1/2 functional assay, M4; details: for EC50: CHO cells stably expressing human M4, agonist 5 min, 37° C., read-out: pEC50 M4 (converted); for Emax: CHO, read-out: % Emax cf. ACh, M4
T1 construct: expressed in transfected cells
T1 sequence (P08173 1-479): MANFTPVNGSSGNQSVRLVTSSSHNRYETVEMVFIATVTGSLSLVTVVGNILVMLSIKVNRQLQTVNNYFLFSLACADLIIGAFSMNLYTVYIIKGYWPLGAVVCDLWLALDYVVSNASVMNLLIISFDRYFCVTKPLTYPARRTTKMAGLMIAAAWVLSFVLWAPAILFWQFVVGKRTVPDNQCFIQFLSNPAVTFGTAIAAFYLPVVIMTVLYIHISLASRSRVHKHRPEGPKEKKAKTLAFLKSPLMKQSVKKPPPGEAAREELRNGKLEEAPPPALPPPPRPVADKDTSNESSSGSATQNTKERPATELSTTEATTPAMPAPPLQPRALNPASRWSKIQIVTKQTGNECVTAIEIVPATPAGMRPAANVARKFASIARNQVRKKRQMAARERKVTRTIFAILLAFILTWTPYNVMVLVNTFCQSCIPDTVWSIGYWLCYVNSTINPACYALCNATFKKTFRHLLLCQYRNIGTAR
Experimental: (§1) ERK1/2 phosphorylation is a downstream consequence of both Gq/11 and Gi/o protein coupled receptor activation, making it highly suitable for the assessment of M1, M3 (Gq/11 coupled) and M2, M4 receptors (Gi/o coupled), rather than using different assay formats for different receptor subtypes. CHO cells stably expressing the human muscarinic M1, M2, M3 or M4 receptor were plated (25K/well) onto 96-well tissue culture plates in MEM-alpha+10% dialysed FBS. Once adhered, cells were serum-starved overnight. Agonist stimulation was performed by the addition of 5 μL agonist to the cells for 5 min (37° C.). Media was removed and 50 μL of lysis buffer added. After 15 min, a 4 μL sample was transferred to 384-well plate and 7 μL of detection mixture added. Plates were incubated for 2 h with gentle agitation in the dark and then read on a PHERAstar plate reader.
(§2) pEC50 and Emax figures were calculated from the resulting data for each receptor subtype.

[2] = target: T2, human muscarinic M3 receptor (Homo sapiens, UniProt P20309); assay: Alphascreen Surefire phospho-ERK1/2 functional assay, M3; details: for EC50: CHO cells stably expressing human M3, agonist 5 min, 37° C., read-out: pEC50 M3 (converted); for Emax: CHO, read-out: % Emax cf. ACh, M3
T2 construct: expressed in transfected cells
T2 sequence (P20309 whole entry): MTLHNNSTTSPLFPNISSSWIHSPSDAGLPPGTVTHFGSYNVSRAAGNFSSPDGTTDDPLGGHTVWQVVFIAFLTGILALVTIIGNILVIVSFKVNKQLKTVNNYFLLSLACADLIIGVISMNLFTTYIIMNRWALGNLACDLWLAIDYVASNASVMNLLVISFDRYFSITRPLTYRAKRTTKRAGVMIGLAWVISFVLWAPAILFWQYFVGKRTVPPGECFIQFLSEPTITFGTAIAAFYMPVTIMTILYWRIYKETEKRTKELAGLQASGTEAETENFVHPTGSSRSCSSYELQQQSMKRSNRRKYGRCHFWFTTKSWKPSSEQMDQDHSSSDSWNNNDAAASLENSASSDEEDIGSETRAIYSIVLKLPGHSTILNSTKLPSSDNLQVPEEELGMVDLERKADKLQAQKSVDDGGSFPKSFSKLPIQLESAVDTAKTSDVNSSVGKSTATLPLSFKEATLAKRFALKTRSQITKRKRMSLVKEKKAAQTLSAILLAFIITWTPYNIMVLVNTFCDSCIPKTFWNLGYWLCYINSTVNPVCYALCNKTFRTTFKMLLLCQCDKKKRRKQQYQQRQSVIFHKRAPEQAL
Experimental: as §1, §2

[3] = target: T3, human muscarinic M2 receptor (Homo sapiens, UniProt P08172); assay: Alphascreen Surefire phospho-ERK1/2 functional assay, M2; details: for EC50: CHO cells stably expressing human M2, agonist 5 min, 37° C., read-out: pEC50 M2 (converted); for Emax: CHO, read-out: % Emax cf. ACh, M2
T3 sequence (P08172 1-466): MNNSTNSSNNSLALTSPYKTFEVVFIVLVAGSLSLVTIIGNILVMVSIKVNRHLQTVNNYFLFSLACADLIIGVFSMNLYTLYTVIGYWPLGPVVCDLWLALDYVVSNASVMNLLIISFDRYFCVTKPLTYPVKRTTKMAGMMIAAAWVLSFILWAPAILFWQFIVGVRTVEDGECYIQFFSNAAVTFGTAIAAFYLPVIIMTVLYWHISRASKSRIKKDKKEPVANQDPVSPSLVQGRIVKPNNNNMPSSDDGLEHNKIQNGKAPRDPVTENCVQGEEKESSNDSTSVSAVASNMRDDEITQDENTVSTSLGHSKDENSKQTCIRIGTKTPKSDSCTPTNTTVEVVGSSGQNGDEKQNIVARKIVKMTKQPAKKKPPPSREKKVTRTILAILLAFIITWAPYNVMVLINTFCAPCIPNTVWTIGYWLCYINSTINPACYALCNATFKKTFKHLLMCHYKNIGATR
Experimental: as §1, §2

[4] = target: T4, human muscarinic M1 receptor (Homo sapiens, UniProt P11229); assay: Alphascreen Surefire phospho-ERK1/2 functional assay, M1; details: for EC50: CHO cells stably expressing human M1, agonist 5 min, 37° C., read-out: pEC50 M1 (converted); for Emax: CHO, read-out: % Emax cf. ACh, M1
T4 sequence (P11229 1-460): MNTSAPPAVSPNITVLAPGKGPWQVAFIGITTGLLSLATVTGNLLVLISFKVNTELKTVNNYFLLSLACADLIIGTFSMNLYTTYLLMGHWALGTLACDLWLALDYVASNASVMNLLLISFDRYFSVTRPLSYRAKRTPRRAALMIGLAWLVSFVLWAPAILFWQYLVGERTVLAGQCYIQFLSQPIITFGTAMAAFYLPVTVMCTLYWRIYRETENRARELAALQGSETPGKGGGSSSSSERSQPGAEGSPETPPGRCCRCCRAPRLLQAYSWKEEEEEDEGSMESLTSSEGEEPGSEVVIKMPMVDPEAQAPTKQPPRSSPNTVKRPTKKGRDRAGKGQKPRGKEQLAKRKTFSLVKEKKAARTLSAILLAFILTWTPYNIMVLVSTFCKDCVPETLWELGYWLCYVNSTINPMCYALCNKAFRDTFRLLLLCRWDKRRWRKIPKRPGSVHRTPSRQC
Experimental: as §1, §2

| Structure (SMILES) | EC50 [1] [µM] | Emax [1] [%] | EC50 [2] [µM] | Emax [2] [%] | EC50 [3] [µM] | Emax [3] [%] | EC50 [4] [µM] | Emax [4] [%] |
| --- | --- | --- | --- | --- | --- | --- | --- | --- |
| O=C1CCON1CCCCCC1CCN(CCCN2C(=O)CCc3ccccc32)CC1 [Example 12, 2-(5-(1-(3-(2-oxo-3,4-dihydroquinolin-1(2H)-yl)propyl)piperidin-4-yl)pentyl)isoxazolidin-3-one] | > 20 | 5 | > 20 | 1 | > 20 | 2 | 0.02 | 41 |
| c1ccc2c(c1)CCCN2CCCN1C2CCC1CC(CCCOC1=NOCC1)C2 (centres unmarked) [Example 9, 3-(3-(8-(3-(3,4-dihydroquinolin-1(2H)-yl)propyl)-8-azabicyclo[3.2.1]octan-3-yl)propoxy)-4,5-dihydroisoxazole] | > 20 | 16 | > 20 | 21 | > 20 | 28 | 0.0251 | 40 |
| O=C1CCON1CCCCC1CCN(CCCN2C(=O)CCc3ccccc32)CC1 [Example 11, 2-(4-(1-(3-(2-oxo-3,4-dihydroquinolin-1(2H)-yl)propyl)piperidin-4-yl)butyl)isoxazolidin-3-one] | > 20 | 10 | > 20 | 7 | > 20 | 4 | 0.01 | 92 |
| O=C1CCON1CCCC1C[C@@H]2CC[C@@H](C1)N2CCCN1C(=O)CCc2ccccc21 (stereo partly drawn) [Example 13, 2-(3-((1S,5S)-8-(3-(2-oxo-3,4-dihydroquinolin-1(2H)-yl)propyl)-8-azabicyclo[3.2.1]octan-3-yl)propyl)isoxazolidin-3-one] | > 20 | 12 | > 20 | 8 | > 20 | 9 | 0.1 | 62 |
| O=C1CCc2ccccc2N1CCCN1[C@@H]2CC[C@H]1C[C@@H](OCCOC1=NOCC1)C2 [Example 5, 1-(3-(3-(2-((4,5-dihydroisoxazol-3-yl)oxy)ethoxy)-8-azabicyclo[3.2.1]octan-8-yl)propyl)-3,4-dihydroquinolin-2(1H)-one] | > 20 | 19 | > 20 | 46 | > 20 | 16 | 0.00631 | 62 |
| O=C1CCc2ccccc2N1CCCN1CCC(CCCCOC2=NOCC2)CC1 [Example 2, 1-(3-(4-(4-((4,5-dihydroisoxazol-3-yl)oxy)butyl)piperidin-1-yl)propyl)-3,4-dihydroquinolin-2(1H)-one] | > 20 | 10 | > 20 | 7 | > 20 | 3 | 0.00316 | 98 |
| O=C1CCc2ccccc2N1CCCN1CCC(CCOC2=NOCC2)CC1 [Example 1, 1-(3-(4-(2-((4,5-dihydroisoxazol-3-yl)oxy)ethyl)piperidin-1-yl)propyl)-3,4-dihydroquinolin-2(1H)-one] | > 20 | 19 | > 20 | 0 | > 20 | 1 | 0.0631 | 92 |
| O=C1CCc2ccccc2N1CCCN1[C@@H]2CC[C@H]1CN(CCCOC1=NOCC1)C2 [Example 6, 1-(3-((1R,5S)-3-(3-((4,5-dihydroisoxazol-3-yl)oxy)propyl)-3,8-diazabicyclo[3.2.1]octan-8-yl)propyl)-3,4-dihydroquinolin-2(1H)-one] | > 20 | 32 | > 0.2 | 0 | > 0.2 | 6 | < 0.000631 | 103 |
| O=C1COc2cc(F)ccc2N1CCCN1CCC(CCCCOC2=NOCC2)CC1 [Example 8, 4-(3-(4-(4-((4,5-dihydroisoxazol-3-yl)oxy)butyl)piperidin-1-yl)propyl)-7-fluoro-2H-benzo[b][1,4]oxazin-3(4H)-one] | 0.0251 | 25 | > 20 | 3 | > 20 | 4 | 0.01 | 102 |
| O=C1CCc2ccccc2N1CCCN1[C@@H]2CC[C@H]1CC(CCOC1=NOCC1)C2 (stereo partly drawn) [Example 3, 1-(3-((1R,5S)-3-(2-((4,5-dihydroisoxazol-3-yl)oxy)ethyl)-8-azabicyclo[3.2.1]octan-8-yl)propyl)-3,4-dihydroquinolin-2(1H)-one] | > 20 | 53 | – | – | – | – | 0.1 | 37 |
| O=C1COc2cc(F)ccc2N1CCCN1CCC(CCOC2=NOCC2)CC1 [Example 7, 4-(3-(4-(2-((4,5-dihydroisoxazol-3-yl)oxy)ethyl)piperidin-1-yl)propyl)-7-fluoro-2H-benzo[b][1,4]oxazin-3(4H)-one] | > 20 | 8 | – | – | – | – | 0.251 | 62 |
| O=C1CCc2ccccc2N1CCCN1C2CCC1CC(CCCOC1=NOCC1)C2 (centres unmarked) [Example 4, 1-(3-(3-(3-((4,5-dihydroisoxazol-3-yl)oxy)propyl)-8-azabicyclo[3.2.1]octan-8-yl)propyl)-3,4-dihydroquinolin-2(1H)-one] | > 20 | 11 | > 20 | 0 | > 20 | 29 | 0.00316 | 71 |
| O=C1CCON1CCC1CCN(CCCN2C(=O)CCc3ccccc32)CC1 [Example 10, 2-(2-(1-(3-(2-oxo-3,4-dihydroquinolin-1(2H)-yl)propyl)piperidin-4-yl)ethyl)isoxazolidin-3-one] | > 20 | 13 | – | – | – | – | 0.794 | 73 |
